Measured values taken from US11850213B2, “Ophthalmic compositions of rifamycins and uses thereof” (AMD THERAPEUTICS LLC, priority 2014, dated 2023).
≈ marks a conversion by molar mass, not a printed value. Where two headings read alike, the source gives them in different places.

How the values were obtained:
[1] = PK study, retina exposure after 0.25% rifampicin eye drop, LC/MS; type: in vivo, Sprague-Dawley rats; details: male, Sprague-Dawley, 37.5 micro gram, rat
Experimental: 15 microL of an eye drop formulation which is presented as Example 1A listed in Table 1 was used to dose the compound to a single eye of a rat. […] At time points of 1 hr, 3 hr, and 7 hr after the eye drop application, retina tissues were extracted from the rats under a dissection microscope. In addition, “Non-treatment” negative control was taken, and retina was extracted from a single rat without any treatment. Retinas were placed in a 1.5 ml microcentrifuge tubes (1 retina/tube), and they were extensively washed by DPBS. After the washing procedure, retina tissue in a microcentrifuge tube was frozen in dry ice, and it was stored for quantification by LC/MS analysis.

[2] = Dose-response study, retina exposure after 0.25% and 0.5% rifampicin eye drops, LC/MS; type: in vivo, Sprague-Dawley rats; details: male, Sprague-Dawley, rat, topical
Experimental: 15 microL of eye drop formulations which are presented as Example 1A and 6A listed in Table 1 and Table 2, respectively, were used to dose the compound to a single eye of a rat. […] In 1 hr after the eye drop application, retina tissues were extracted from the rats under a dissection microscope. In addition, “Non-treatment” negative control was taken, and retina was extracted from a single rat without any treatment. Retinas were placed in a 1.5 ml microcentrifuge tubes (1 retina/tube), and they were extensively washed by DPBS. After the washing procedure, retina tissue in a microcentrifuge tube was frozen in dry ice, and it was stored for quantification by LC/MS analysis.

[3] = Solubility of AMD101 in H2O; type: physicochemical; details: water
Experimental: In H2O, the AMD101 can dissolve at approximately 1.4 mg/ml only. However, the concentration was increased as provided herein employing suitable excipients. Those formulations are stable for weeks.

[4] = Retina exposure of rifampicin after subcutaneous injection, LC/MS; type: in vivo, Sprague-Dawley rats; details: male, Sprague-Dawley, rat, SC injection 20 mg/Kg (Example 6A), n = 4
Experimental: At time points of 1 hr, 3 hr, and 7 hr after the SC injection, retina tissues were extracted from the rats under a dissection microscope. In addition, “Non-treatment” negative control was taken, and retina was extracted from two rats without any treatment. Retinas were placed in a 1.5 ml microcentrifuge tubes (1 retina/tube), and they were extensively washed by DPBS. After the washing procedure, retina tissue in a microcentrifuge tube was frozen in dry ice, and it was stored for quantification by LC/MS analysis. […] Amounts detected in retina by the SC injection were equivalent to those delivered by the eye drop application (See Table 3).

[5] = Retina exposure of rifampicin after topical eye drops (3 or 10 drops), LC/MS; type: in vivo, Sprague-Dawley rats; details: Rat, 0.25%
Experimental: The remaining two rats received the same applications, but 10 drops, to each eye under isoflurane sedation. A single drop contained 5 micro L of the formulation, and applications of each drop had 30 min interval. After the eye drop application, retinas were extracted under a dissection microscope. In addition, “Non-treatment” negative control was taken, and retina was extracted from two rats without any treatment. Retinas were placed in a 1.5 ml microcentrifuge tubes (1 retina/tube), and they were extensively washed by DPBS. After the washing procedure, retina tissue in a microcentrifuge tube was frozen in dry ice, and it was stored for quantification by LC/MS analysis.

[6] = Rabbit, 0.5% 50 microL, 250 micro g, Sigurdsson et al (2007); cited from earlier work

SMILES | Tmax ([1]; topical or ocular, 0.25% eye drop 15 microL) [h] | concentration at 1 hr ([1]; topical, 0.25% eye drop 15 microL (Example 1A), 1 hr, n = 4) [ng/g] | concentration at 3 hr ([1]; topical, 0.25% eye drop 15 microL (Example 1A), 3 hr, n = 4) [ng/g] | concentration at 7 hr ([1]; topical, 0.25% eye drop 15 microL (Example 1A), 7 hr, n = 4) [ng/g] | concentration at 1 hr ([2]; 37.5 micro gram) [ng/g] | concentration at 1 hr ([2]; 75 micro gram) [ng/g] | solubility [3] [µg/mL] | concentration at 1 hr ([4]; 1 hr) [ng/g] | concentration at 3 hr ([4]; 3 hr) [ng/g] | concentration at 7 hr ([4]; 7 hr) [ng/g] | Drug amount detected in retina ([5]; 3 drops (15 microL, 37.5 micro g)) | Drug amount detected in retina ([5]; 10 drops (50 microL, 125 micro g)) | Drug amount detected in retina [6]
CO[C@H]1/C=C/O[C@@]2(C)Oc3c(C)c(O)c4c(O)c(c(/C=N/N5CCN(C)CC5)c(O)c4c3C2=O)NC(=O)/C(C)=C\C=C\[C@H](C)[C@H](O)[C@@H](C)[C@@H](O)[C@@H](C)[C@H](OC(C)=O)[C@@H]1C [Rifampicin] | ~1 | 1580 | 1150 | 104 | 1580 | 6070 | ~1400 (≈ 1700 µM) | 2660 | 3860 | 2520 | ~1,288 ng/g retina ng/g retina tissue | ~2,939 ng/g retina ng/g retina tissue | –
C[C@@H]1C[C@H]2[C@@H]3CCC4=CC(=O)C=C[C@]4(C)[C@@]3(F)[C@@H](O)C[C@]2(C)[C@@]1(O)C(=O)CO [Dexamethasone] | – | – | – | – | – | – | – | – | – | – | – | – | ~33 ng/g retina ng/g retina tissue
